Results on one compound are retold here after patent US9738677B2, “Amphotericin B derivative with reduced toxicity” (priority 2014, dated 2017).

Structures are written as SMILES. ≈ marks a conversion by molar mass, not a printed value. Entries after “also recorded” stand apart in the source; their conditions may differ.

One data set deals with S. cerevisiae. As to the kind of experiment: Broth microdilution MIC assay. The class given is cell-based. Conditions: Saccharomyces cerevisiae, 24 hours, 30° C., no visible growth. On the procedure: (§1) Exemplary methods for antifungal activity assays are as follows:
S. cerevisiae was maintained with yeast peptone dextrose (YPD) growth media consisting of 10 g/L yeast extract, 20 g/L peptone, 20 g/L dextrose, and 20 g/L agar for solid media. The media was sterilized by autoclaving at 250° F. for 30 min. Dextrose was subsequently added as a sterile 40% w/v solution in water (dextrose solutions were filter sterilized). Solid media was prepared by pouring sterile media containing agar (20 g/L) onto Corning (Corning, N.Y.) 100×20 mm polystyrene plates. Liquid cultures were incubated at 30° C. on a rotary shaker and solid cultures were maintained at 30° C. in an incubator.
The protocol for the broth microdilution assay was adapted from the Clinical and Laboratory Standards Institute document M27-A2. Clinical and Laboratory Standards Institute. Reference Method for Broth Dilution Antifungal Susceptibility Testing, M27-A2, Approved Standard 2nd Ed. Vol. 22, Number 15, 2002. 50 mL of YPD media was inoculated and incubated overnight at either 30° C. (S. cerevisiae) or 37° C. (C. albicans) in a shaker incubator. The cell suspension was then diluted with YPD to an OD600 of 0.10 (˜5×10^5 cfu/mL) as measured by a Shimadzu (Kyoto, Japan) PharmaSpec UV-1700 UV/Vis spectrophotometer. […]

For another data set, the system named is C. albicans. The data set can be described thus: Broth microdilution MIC assay. The class given is cell-based. The note with it: Candida albicans, 24 hours, 37° C., no visible growth. On the procedure:
as §1
C. albicans was cultured in a similar manner to S. cerevisiae except both liquid and solid cultures were incubated at 37° C.
The protocol for the broth microdilution assay was adapted from the Clinical and Laboratory Standards Institute document M27-A2. Clinical and Laboratory Standards Institute. Reference Method for Broth Dilution Antifungal Susceptibility Testing, M27-A2, Approved Standard 2nd Ed. Vol. 22, Number 15, 2002. 50 mL of YPD media was inoculated and incubated overnight at either 30° C. (S. cerevisiae) or 37° C. (C. albicans) in a shaker incubator. The cell suspension was then diluted with YPD to an OD600 of 0.10 (˜5×10^5 cfu/mL) as measured by a Shimadzu (Kyoto, Japan) PharmaSpec UV-1700 UV/Vis spectrophotometer. The solution was diluted 10-fold with YPD, and 195 μL aliquots of the dilute cell suspension were added to sterile Falcon (Franklin Lakes, N.J.) Microtest 96-well plates in triplicate. Compounds were prepared either as […] (AmB, C2′deOAmB) or 2 mM (AmdeB) stock solutions in DMSO and serially diluted to the following concentrations with DMSO: 1600, 1200, 800, 400, 320, 240, 200, 160, 120, 80, 40, 20, 10 and 5 μM. 5 μL aliquots of each solution were added to the 96-well plate in triplicate, with each column representing a different concentration of the test compound. […]

For data set [1], the system named is primary human renal proximal tubule epithelial cells. As to the kind of experiment: WST-8 cell proliferation assay (MTC). Conditions: up to limits of solubility. It counts as cell-based. On the procedure:
WST-8 Cell Proliferation Assays
Primary human renal proximal tubule epithelial cells (RPTECs) were purchased from ATCC (Manassas, Va.) and immediately cultured upon receipt. Complete growth media was prepared using renal epithelial cell basal medium (ATCC, PCS-400-030), renal epithelial cell growth kit (ATCC, PCS-400-040), and penicillin-streptomycin (10 units/mL and 10 μg/mL). Complete media was stored at 4° C. in the dark and used within 28 days. Primary RPTECs were grown in CO2 incubator at 37° C. with an atmosphere of 95% air/5% CO2.
WST-8 cell proliferation assay kit (Ser. No. 10/010,199) was purchased from Cayman Chemical Company (Ann Arbor, Mich.) and stored at −20° C. and used within 6 months of receipt. WST-8 reagent and electron mediator solution were thawed and mixed to prepare the WST-8 reagent solution. The solution was stored at −20° C. and used within one week.
A suspension of primary RPTECs in complete growth media was brought to a concentration of 1×10^5 cells/mL. A 96-well plate was seeded with 99 μL of the cell suspension and incubated at 37° C. with an atmosphere of 95% air/5% CO2 for 3 hours. Positive and negative controls were prepared by seeding with 100 μL of the cell suspension or 100 μL of the complete media. Compounds were prepared as 5 mM (AmB), 20 mM (C2′deOAmB), and 50 mM (C2′epiAmB) stock solutions in DMSO and serially diluted to the following concentrations with DMSO: 50000, 40000, 30000, 20000, 10000, 8000, 6000, 4000, 3000, 2000, 1500, 1000, 800, 600, 400, 300, 200, 100, 50, 25, 10, 5, 2.5, 1, 0.5, 0.25, and 0.1 μM. 1 μL aliquots of each solution were added to the 96-well plate in triplicate, with each column representing a different concentration of the test compound. The 96-well plate was incubated at 37° C. with an atmosphere of 95% air/5% CO2 for 24 hours. […] Following incubation, the 96-well plate was mixed in a shaking incubator at 200 rpm for 1 minute and absorbances were read at 450 nm using a Biotek H1 Synergy Hybrid Reader (Wanooski, Vt.). […]

In a further data set the test system is healthy mice. The data set can be described thus: Acute toxicity, single intravenous administration, lethality. The class given is in vivo, mouse. On the procedure: FIG. 8 is a graph depicting lethality in healthy mice resulting from single intravenous administrations in the doses indicated of AmB or C2′epiAmB.
In a separate experiment, acute toxicity was determined by single intravenous administration of AmB or C2′epiAmB to healthy mice, followed by monitoring for lethality.

For the compound `C[C@@H]1[C@H](O)[C@@H](C)/C=C/C=C/C=C/C=C/C=C/C=C/C=C/[C@H](O[C@@H]2O[C@H](C)[C@@H](O)[C@H](N)[C@H]2O)CC2O[C@](O)(C[C@@H](O)C[C@@H](O)[C@H](O)CC[C@@H](O)C[C@@H](O)CC(=O)O[C@H]1C)C[C@H](O)[C@H]2C(=O)O` [C2′epiAmB], the minimal inhibitory concentration (MIC) against S. cerevisiae and in the data set on C. albicans was 2 µM (≈ 1.85 µg/mL) throughout. For the same compound, the “Toxicity to primary human renal proximal tubule epithelial cells (in words)” value in data set [1] is recorded as “no evidence of toxicity up to their limits of solubility”. Moreover, the Lethality entry in the data set on healthy mice (healthy mice, single intravenous doses up to 16 mg/kg) was “no deaths observed”. Also, in the data set on healthy mice (mice), the “Acute toxicity compared to AmB (in words)” value is recorded as “significantly less toxic; also recorded: substantially less toxic to mice”.
